Earlier results on one compound are cited in patent publication US7427493B2, “Recombinant genes for polyketide modifying enzymes” (Kosan Biosciences Incorporated, priority 2002, dated 2008).

In the series the test system is parasites. The settings on record: background statement.

Consider `CC[C@H]1OC(=O)[C@H](C)[C@@H](O[C@H]2C[C@@](C)(OC)[C@@H](O)[C@H](C)O2)[C@H](C)[C@@H](O[C@@H]2O[C@H](C)C[C@H](N(C)C)[C@H]2O)[C@](C)(O)C[C@@H](C)C(=O)[C@H](C)[C@@H](O)[C@]1(C)O` [erythromycin], for which the antiparasitic activity result is reported as “does not have antiparasitic activity”.
